Assay results as given in patent publication US11382925B2, “Agent for treating retinal disease” (CARNA HEALTH SUPPORT LTD., priority 2017, dated 2022).

What was measured:
[1] = Preliminary test: body weight, blood sugar and urinal sugar in light-irradiated age-related maculopathy mouse model; format: in vivo, BALB/c mice; settings: AMD mouse; for change in body weight as compared to when not administering ipragliflozin: light irradiation 8000 lux 10 hours, bred one week
Method: (§1) To BALB/c mice, light irradiation (8000 lux, 10 hours) was performed, and then the mice were bred for one week. The existing SGLT2 inhibitor agent ipragliflozin was orally administered in an amount of 0.03 mg/kg/day and 0.1 mg/kg/day for four days including the day of light irradiation. The effects on body weight and blood sugar were confirmed. These models are widely used as age-related maculopathy models.
FIGS. 1 and 2 show the results of body weight and blood sugar levels when administering the existing SGLT2 inhibitor agent ipragliflozin at 0.03 mg/kg/day and 0.1 mg/kg/day.

[2] = system: retina of an age-related maculopathy mouse model; assay: Hematoxylin-Eosin staining of retina, thickness of outer granular layer, in age-related maculopathy mouse model; format: in vivo, BALB/c mice; settings: vs non-administered AMD mouse
Method: FIG. 4 is a graph showing the thickness of outer granular layer (including visual cells) of the retina of an age-related maculopathy mouse model in numeral terms. […] “***” represents P<0.005 vs control mouse, “#” and “##” each represents P<0.05 vs Ipragliflozin non-administered AMD mouse, and P<0.01 vs Ipragliflozin non-administered AMD mouse, respectively.
as §1

[3] = target: T1, SGLT2 (Homo sapiens, UniProt P31639); settings: cited from earlier work
T1 sequence (P31639 1-672): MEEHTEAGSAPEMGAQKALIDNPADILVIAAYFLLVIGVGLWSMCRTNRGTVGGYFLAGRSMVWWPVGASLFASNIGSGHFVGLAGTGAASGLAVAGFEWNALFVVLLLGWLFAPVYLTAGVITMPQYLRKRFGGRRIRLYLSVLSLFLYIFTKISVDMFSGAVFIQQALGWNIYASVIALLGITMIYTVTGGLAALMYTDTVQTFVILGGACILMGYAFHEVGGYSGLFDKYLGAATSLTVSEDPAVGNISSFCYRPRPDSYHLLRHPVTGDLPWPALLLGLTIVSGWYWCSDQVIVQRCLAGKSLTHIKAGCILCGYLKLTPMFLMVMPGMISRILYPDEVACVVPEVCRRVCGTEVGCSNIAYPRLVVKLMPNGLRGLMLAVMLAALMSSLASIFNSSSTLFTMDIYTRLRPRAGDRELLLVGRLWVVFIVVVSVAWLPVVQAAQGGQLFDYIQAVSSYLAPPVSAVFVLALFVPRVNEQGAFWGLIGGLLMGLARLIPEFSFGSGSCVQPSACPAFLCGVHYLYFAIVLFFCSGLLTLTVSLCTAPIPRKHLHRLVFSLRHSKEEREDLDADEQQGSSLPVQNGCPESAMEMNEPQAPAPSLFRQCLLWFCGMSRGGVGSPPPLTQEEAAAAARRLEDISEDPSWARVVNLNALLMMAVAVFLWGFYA

[4] = authorized minimum dosage amount; compared with canagliflozin; cited from earlier work
[5] = 0.03 mg/kg/day orally for four days
[6] = 0.1 mg/kg/day orally for four days

SMILES	IC50 level showing the inhibition activity, compared with canagliflozin [3]	maximum blood concentration (Cmax) in the minimum dosage amount, relative to that of canagliflozin [4]	other results
OC[C@H]1O[C@@H](c2ccc(F)c(Cc3cc4ccccc4s3)c2)[C@H](O)[C@@H](O)[C@@H]1O [ipragliflozin]	–	–	change in urinal sugar as compared to when not administering ipragliflozin ([1]; 0.03 mg/kg/day and 0.1 mg/kg/day orally for four days): no change was observed; change in blood sugar as compared to when not administering ipragliflozin [1, 5]: no change was observed; change in body weight as compared to when not administering ipragliflozin [1, 5]: no change was observed; change in blood sugar as compared to when not administering ipragliflozin [1, 6]: no change was observed; change in body weight as compared to when not administering ipragliflozin [1, 6]: no change was observed; thinning of membrane shown in retina of AMD mouse (thickness of outer granular layer) ([2]; 0.03 mg/kg/day orally): significantly ameliorated; thinning of membrane shown in retina of AMD mouse (thickness of outer granular layer) ([2]; 0.1 mg/kg/day orally): significantly ameliorated
CCc1ccc(Cc2ccc3c(c2)[C@]2(OC3)O[C@H](CO)[C@@H](O)[C@H](O)[C@H]2O)cc1 [tofogliflozin hydrates, tofogliflozin hydrate]	similar	approximately 1/10	–
OC[C@H]1O[C@@H](c2ccc(Cl)c(Cc3ccc(O[C@H]4CCOC4)cc3)c2)[C@H](O)[C@@H](O)[C@@H]1O [empagliflozin]	similar	approximately 1/10	–
CCOc1ccc(Cc2cc([C@@H]3S[C@H](CO)[C@@H](O)[C@H](O)[C@H]3O)c(OC)cc2C)cc1 [luseogliflozin hydrate]	similar	approximately 1/10	–
O=C(O)[C@@H]1CCCN1.OC[C@H]1O[C@@H](c2ccc(F)c(Cc3cc4ccccc4s3)c2)[C@H](O)[C@@H](O)[C@@H]1O [ipragliflozin L-proline]	similar	similar	–
